Data from ChEMBL document CHEMBL1158950, “New Sesquiterpenes from Xanthium catharticum” (J Nat Prod, 1991).
Activity calls are given as the source filed them. The calls are words filed in the database; no cut-off is given here.

Tests used:
Bacillus subtilis = assay: Antimicrobial activity against Bacillus subtilis; type: functional, organism-based
Staphylococcus aureus = assay: Antimicrobial activity against Staphylococcus aureus; type: functional, organism-based
Artemia salina = assay: Toxicity in Artemia salina; type: organism-based; details: in vivo
[1] = system: Agrobacterium tumefaciens; assay: Antitumor activity against Agrobacterium tumefaciens-induced crown gall tumor by potato disk assay; type: functional

Structure (SMILES) | Activity (Bacillus subtilis) | Activity (Staphylococcus aureus) | LC50 (Artemia salina) [ppm] | inhibition (INH) [1] [%]
CC(=O)/C=C/C1=CC[C@@H]2[C@H](C)C(=O)O[C@@H]2C[C@@H]1C | inactive | inactive | – | –
C=C1C(=O)O[C@@H]2CC(=C)[C@@H]3CC=C(C)[C@@H]3C[C@H]12 [GUAIANOLIDE ZINIOLIDE] | – | – | 14 | 49
